Earlier results in patent publication US9592004B2, “Methods and systems for managing epilepsy and other neurological disorders” (CYBERONICS, INC., priority 2005, dated 2017).
Where two headings read alike, the source gives them in different places.

Legend:
seizure = settings: intranasal
sodium channels = settings: in vitro
[1] = tested on: cultured mouse spinal cord neurons; settings: 10-30 μg/mL
T-type Ca^2+ currents = settings: in vitro
rat hippocampal slices = settings: 10-30 μg/mL
[2] = tested on: dopaminergic and serotonergic neurotransmission; settings: in vivo microdialysis
partial seizures = settings: controlled trials, adjunctive therapy, adults, oral
[3] = tested on: GABA/benzodiazepine receptor ionophore complex; settings: in vitro; does not produce changes in chloride flux
[4] = not given; remark: listed apart in the source
[5] = long term therapy, per daily dose of 1 mg/kg of primidone

Cc1ncc2n1-c1ccc(Cl)cc1C(c1ccccc1F)=NC2 [Midazolam, midazolam]
time to terminate a seizure (seizure): 30 s

CCC1(c2ccccc2)C(=O)NCNC1=O [primidone, Primidone]
average plasma concentration [5]: about 1 μg/ml

CCC1(C)CC(=O)NC1=O (stereo not shown) [ethosuximide, Ethosuximide]
average plasma concentration (long-term therapy, per daily dose of 1 mg/kg): about 2 μg/ml

CCC1(c2ccccc2)C(=O)NC(=O)NC1=O [phenobarbital, Phenobarbital]
average plasma concentration (long term therapy in adults, per daily dose of 1 mg/kg): about 10 μg/ml
average plasma concentration [5]: about 2 μg/ml

NS(=O)(=O)Cc1noc2ccccc12 [zonisamide, 1,2-benzisoxazole-3-methanesulfonamide]
effect on sodium channels (sodium channels): blocks sodium channels
effect on synaptically-driven electrical activity [1]: suppresses synaptically-driven electrical activity
effect on postsynaptic GABA or glutamate responses ([1]; cultured mouse spinal cord neurons): without affecting postsynaptic GABA or glutamate responses
carbonic anhydrase inhibiting activity (carbonic anhydrase): weak carbonic anhydrase inhibiting activity
effect on T-type Ca2+ currents (T-type Ca^2+ currents): reduces voltage-dependent, transient inward currents
effect on neuronal or glial uptake of [3H]-GABA (rat hippocampal slices): without affecting
effect on dopaminergic and serotonergic neurotransmission [2]: facilitates both dopaminergic and serotonergic neurotransmission
effective doses (partial seizures): 100 to 600 mg/day
binding to GABA/benzodiazepine receptor ionophore complex [3]: binds to the GABA/benzodiazepine receptor ionophore complex in an allosteric fashion

O=C1NC(=O)C(c2ccccc2)(c2ccccc2)N1 [Phenytoin, diphenylhydantoin]
concentration at which toxic effects such as nystagmus develop [4]: around 20 μg/ml
concentration giving chronic control of seizures (seizures): above 10 μg/ml
